Test results as given in US5948791A, “Quinoline derivatives for treating malaria” (Hoffmann-La Roche Inc., priority 1995, dated 1999).
Converted amounts (≈) assume the structure as drawn. Read-outs that look alike come from different tables or passages of the source.

Key:
Plasmodium berghei = test: animal or person; type: in vivo, Plasmodium berghei (strain ANKA) in mice; conditions: Plasmodium berghei
Procedure: Test method for the determination of the activity against Plasmodium berghei in vivo
The preparations are tested on mice infected with malaria pathogens (Plasmodium berghei). Male albino mice (IBM:MORO(SPF), FUELLINSDORF) weighing about 25 g are used as the test animals. They are kept in climatized rooms at 21-22° C. in groups of 5 animals per cage. They receive ad libitum a diet feed with a low PABA content (NAFAG FUTTER " No. 9009 PAB-45, PABA content 45 mg/kg) and drinking water. On the first day of the test (D0) the test animals are infected with Plasmodium berghei (strain ANKA). For this there is used heparinized blood of a donor mouse with about 30% parasitemia, which is diluted with physiological saline such that it contains 10^8 parasitized erythrocytes per ml. 0.2 ml of this suspension is injected intravenously (i.v.) into the mice to be treated and into the control mice.
The substances to be tested are dissolved or suspended in distilled water or in a mixture of 7% Tween 80, 3% alcohol (96%) and water. Usually, 0.25 ml of this solution or suspension is administered once subcutaneously and perorally to groups of 5 test animals. Treatment is effected 24 hours after the infection. 10 control animals are treated in the same manner with solvent or suspension medium per test.
All substances are tested in a first test in a single dosage of 10 mg/kg. Only those substances which in this test (10 mg/kg) have shown a parasitaemia reduction of 90% are used for the titration. Suitable dilutions of the test substance can be used to obtain an accurate titration of the activity.
48 hours after the treatment (D+3) blood smears are prepared from all animals using blood from tail veins and are stained with giemsa. […] The difference in the average values of the infection rates of control group (100%) and treated groups is calculated and expressed as a percentage reduction (GI%). The ED50 or ED90 is determined mathematically by means of the JMP programme (nonlinear fit). The ED50 (ED90) in mg/kg is that dose which after single administration reduces the average erythrocyte infection rate by 50% (90%) in comparison to the control group.

Plasmodium falciparum K1 = test: Growth inhibition of Plasmodium falciparum K1 (chloroquine-resistant) in vitro, [G-3H]-hypoxanthin incorporation; type: cell-based, Plasmodium falciparum (strain K1); conditions: for IC50: Plasmodium falciparum, K1, 72 h, read-out: IC50 for P. falciparum K1; for Resistance index: ratio of the IC50 for K1 and the IC50 for NF54
Description: (§1) The ratio of the growth inhibition of a strain which is especially resistant to chloroquine and of a strain which is sensitive to chloroquine gives as the "resistance index" a measurement for the absence of a cross-resistance with chloroquine. Since, for all novel compounds the resistance index lies between 0.7 and 2.5, they inhibit the growth of sensitive as well as resistant strains of the malaria pathogen equally effectively. They are accordingly also suitable for the prophylaxis of a malaria disease and also for the treatment of a malaria disease even when chloroquine is ineffective. The good activity against malaria pathogens is also shown in animal experiments. The effective doses measured after oral and subcutaneous administration to mice infected with malaria pathogens are shown in Table 2 hereinafter.
(§2) Test method for the determination of the activity against Plasmodium falciparum in vitro
(§3) The preparations are tested on intraerythrocytary stages of Plasmodium falciparum from asynchronous cultures according to the method of Desjardin et al. (Desjardins, R. E. et al: Quantitative assessment of antimalarial activity in vitro by a semiautomated microdilution technique. Antimicrob. Agents Chemother. 16, 710-718, (1979)).
(§4) The culture medium consists of RPMI 1640 with the addition of 25 mM HEPES, 25 mM NaHCO3, 100 μg/ml neomycin and […] (A^+). Human-A^+ erythrocytes are used as the Plasmodium falciparum host cells. The parasites are maintained at 37° C. in an atmosphere of 3% O2, 4% CO2, 93% N2 and 95% relative humidity.
(§5) In order to determine the activity, the preparations are dissolved in DMSO, pre-diluted in the culture medium to a suitable starting concentration and subsequently titrated-out on to microtitre plates in the 2nd stage over 6-7 steps. After the addition of the parasite culture (0.7% parasitemia in 2.5% erythrocyte suspension) the test plates are incubated under the conditions given above for 72 h. The parasite growth in the different preparation concentrations is determined using [G-^3 H]-hypoxanthin incorporation compared to untreated control cultures on the same test plates. The 50% growth inhibition (IC50) is calculated according to logit regression analysis from the resulting dosage-activity curve.
(§6) The preparations are tested on at least one chloroquine-resistant and one chloroquine-sensitive Plasmodium falciparum strain. Additional sensitive and resistant strains are included for further characterization.

[1] = test system: Plasmodium falciparum strain NF54; test: Growth inhibition of Plasmodium falciparum NF54 (chloroquine-sensitive) in vitro, [G-3H]-hypoxanthin incorporation; type: cell-based; conditions: read-out: IC50 for P. falciparum NF54
Description: as §1, §2, §3, §4, §5, §6

[2] = po, single peroral dose of 10 mg/kg, mice, blood smears 48 h after treatment, read-out: Growth inhibition in % after po administration (GI%, percentage reduction of the parasitemia)
[3] = sc, single subcutaneous dose of 10 mg/kg, mice, blood smears 48 h after treatment, read-out: Growth inhibition in % after sc administration (GI%, percentage reduction of the parasitemia)
[4] = chloroquine-sensitive strain NF54, 72 h

Row | SMILES | inhibition in vivo at 10 mg/kg (Plasmodium berghei; [2]) [%] | inhibition in vivo at 10 mg/kg (Plasmodium berghei; [3]) [%] | IC50 (Plasmodium falciparum K1) [µg/mL] | Resistance index (Plasmodium falciparum K1) | IC50 [1, 4] [µg/mL] | inhibition in vivo at 10 mg/kg (Plasmodium berghei; in Mus musculus, po, 48 h, read-out: Growth inhibition in % after po administration (GI%, percentage reduction of the parasitemia)) [%] | inhibition in vivo at 10 mg/kg (Plasmodium berghei; in Mus musculus, sc, 48 h, read-out: Growth inhibition in % after sc administration (GI%, percentage reduction of the parasitemia)) [%] | IC50 ([1]; NF54, 72 h) [µg/mL]
1 | Cl.Cl.Clc1ccc(CN[C@@H]2CC[C@H](Nc3ccnc4cc(Cl)ccc34)C2)cc1 (relative stereo) [Example 68, cis-N1-(7-Chloro-quinolin-4-yl)-N3-(4-chloro-benzyl)-cyclopentane-1,3-diamine dihydrochloride] | 99.9 | 99.6 | 0.0146 | 2.5 | 0.0059 |  |  | 
2 | CCN(CC)CCCC(C)Nc1ccnc2cc(Cl)ccc12 (stereo not shown) [Chloroquine diphosphate, reference compound] |  |  | 0.095 | 14.2 |  | 99.9 | 99.9 | 0.0067
3 | CC(C)(CNc1ccnc2cc(Cl)ccc12)NCc1ccc(Cl)c(Cl)c1 [Example 3, N1-(7-Chloro-quinolin-4-yl)-N2-(3,4-dichloro-benzyl)-2-methyl-propane-1,2-diamine] | 96 | 8 | 0.0183 (≈ 0.0448 µM) | 1.3 | 0.0137 (≈ 0.0335 µM) |  |  | 
4 | CC(C)(CNc1ccnc2cc(Cl)ccc12)NCc1cccc(Cl)c1 [Example 4, N1-(7-Chloro-quinolin-4-yl)-N2-(3-chloro-benzyl)-2-methyl-propane-1,2-diamine] | 68 | 73 | 0.0088 (≈ 0.0235 µM) | 1.0 | 0.0091 (≈ 0.0243 µM) |  |  | 
5 | CC(C)(CNc1ccnc2cc(Cl)ccc12)NCc1ccc(Cl)cc1Cl [Example 5, N1-(7-Chloro-quinolin-4-yl)-N2-(2,4-dichloro-benzyl)-2-methyl-propane-1,2-diamine] | 83 | 69 | 0.0572 (≈ 0.14 µM) | 1.2 | 0.0493 (≈ 0.121 µM) |  |  | 
6 | CC(C)(CNc1ccnc2cc(Cl)ccc12)NCc1ccc(F)c(Cl)c1 [Example 6, N1-(7-Chloro-quinolin-4-yl)-N2-(3-chloro-4-fluoro-benzyl)-2-methyl-propane-1,2-diamine] | 99.7 | 95 | 0.0145 (≈ 0.037 µM) | 1.4 | 0.0103 (≈ 0.0263 µM) |  |  | 
7 | CC(C)(CNc1ccnc2cc(Cl)ccc12)NCc1ccc(Cl)c(C(F)(F)F)c1 [Example 7, N1-(7-Chloro-quinolin-4-yl)-N2-(4-chloro-3-trifluoromethyl-benzyl)-2-methyl-propane-1,2-diamine] | 96 | 54 | 0.0349 (≈ 0.0789 µM) | 1.5 | 0.024 (≈ 0.0543 µM) |  |  | 
8 | CC(C)(CNc1ccnc2cc(Cl)ccc12)NCc1cccc(C(F)(F)F)c1 [Example 8, N1-(7-Chloro-quinolin-4-yl)-N2-(3-trifluoromethyl-benzyl)-2-methyl-propane-1,2-diamine] | 99 | 95 | 0.0189 (≈ 0.0463 µM) | 1.2 | 0.0161 (≈ 0.0395 µM) |  |  | 
9 | CC(C)(CNc1ccnc2cc(Cl)ccc12)NCc1ccc(C(F)(F)F)cc1 [Example 9, N1-(7-Chloro-quinolin-4-yl)-N2-(4-trifluoromethyl-benzyl)-2-methyl-propane-1,2-diamine] | 66 | 74 | 0.0167 (≈ 0.0409 µM) | 1.3 | 0.0132 (≈ 0.0324 µM) |  |  | 
10 | CC(C)(CNc1ccnc2cc(Cl)ccc12)NCc1cc(C(F)(F)F)cc(C(F)(F)F)c1 [Example 10, N1-(7-Chloro-quinolin-4-yl)-N2-(3,5-bis-trifluoromethyl-benzyl)-2-methyl-propane-1,2-diamine] | 99.2 | 99.3 | 0.0504 (≈ 0.106 µM) | 1.0 | 0.0517 (≈ 0.109 µM) |  |  | 
11 | CC(C)(CNc1ccnc2cc(Cl)ccc12)NCc1ccncc1 [Example 11, N1-(7-Chloro-quinolin-4-yl)-N2-(pyridin-4-yl-methyl)-2-methyl-propane-1,2-diamine] | 99.9 | 99.8 | 0.048 (≈ 0.141 µM) | 1.6 | 0.0293 (≈ 0.086 µM) |  |  | 
12 | CC(C)(CNc1ccnc2cc(Cl)ccc12)NCc1ccc2c(c1)OCO2.Cl.Cl [Example 42, N1-(7-Chloro-quinolin-4-yl)-N2-benzo[1,3]dioxol-5-ylmethyl-2-methyl-propane-1,2-diamine dihydrochloride] |  |  | 0.0126 | 1.4 | 0.0087 |  |  | 
13 | CC(C)(CNc1ccnc2cc(Cl)ccc12)NCc1cccc2ccccc12.Cl.Cl [Example 52, N1-(7-Chloro-quinolin-4-yl)-N2-(naphthalen-1-yl-methyl)-2-methyl-propane-1,2-diamine dihydrochloride] |  |  | 0.0556 | 1.6 | 0.0346 |  |  | 
14 | CC(C)(CNc1ccnc2cc(Cl)ccc12)NCc1ccc2ccccc2c1.Cl.Cl [Example 53, N1-(7-Chloro-quinolin-4-yl)-N2-(naphthalen-2-yl-methyl)-2-methyl-propane-1,2-diamine dihydrochloride] |  |  | 0.0149 | 0.9 | 0.0159 |  |  | 
15 | CC(C)(CNc1ccnc2cc(Cl)ccc12)NCc1ccco1.Cl.Cl [Example 54, N1-(7-Chloro-quinolin-4-yl)-N2-(furan-2-yl-methyl)-2-methyl-propane-1,2-diamine dihydrochloride] |  |  | 0.029 | 1.5 | 0.0193 |  |  | 
16 | CC(C)(CNc1ccnc2cc(Cl)ccc12)NCc1ccoc1.Cl.Cl [Example 55, N1-(7-Chloro-quinolin-4-yl)-N2-(furan-3-yl-methyl)-2-methyl-propane-1,2-diamine dihydrochloride] |  |  | 0.0145 | 1.9 | 0.0078 |  |  | 
17 | CC(C)(CNc1ccnc2cc(Cl)ccc12)NCc1ccc(C(F)(F)F)cc1C(F)(F)F.Cl.Cl [Example 59, N1-(7-Chloro-quinolin-4-yl)-N2-(2,4-bis-trifluoromethyl-benzyl)-2-methyl-propane-1,2-diamine dihydrochloride] |  |  | 0.186 | 1.1 | 0.166 |  |  | 
18 | COc1cc(CN[C@H]2CCCC[C@@H]2Nc2ccnc3cc(Cl)ccc23)cc(OC)c1OC.Cl.Cl [Example 65, (1S,2S)-N1-(7-Chloro-quinolin-4-yl)-N2-(3,4,5-trimethoxy-benzyl)-cyclohexane-1,2-diamine dihydrochloride] |  |  | 0.0253 | 2.6 | 0.0099 |  |  | 
